Test results published in US9724351B2, “Compounds for the treatment of paramoxyvirus viral infections” (priority 2012, dated 2017).

How the values were obtained:
[1] = tested on: Respiratory Syncytial Virus (RSV) long strain (ATCC#VR-26); assay: RSV Antiviral Assay (CPE reduction assay); assay type: cell-based; conditions: human respiratory syncytial virus, 120 h; HEp-2 cells infected with RSV long strain, 5 days, CCK-8 readout; bins (Table 2: less than 1 μM; Table 3: equal to or higher than 1 μM and less than 50 μM); read-out: 50% effective concentration (EC50)
In short: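 HEp-2 cells infected with 100 TCID50 RSV long strain per well, compounds from 100 μM or 1 μM in 9-point ⅓ dilutions, duplicates, 1% DMSO. After 5 days at 37 °C, viable cells measured by CCK-8 (A450, 630 nm background); EC50 by regression on mean O.D.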

[2] = Cytotoxicity Determination; assay type: cell-based; conditions: human, HEp-2 cells, without addition of virus, CCK-8 readout, bins (Table 4: greater than 100 μM; Table 5: equal to or less than 100 μM and greater than 10 μM), read-out: 50% cytotoxicity concentration (CC50)
In short: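 Uninfected cells were exposed to compounds in duplicate over a 7-point ½ dilution series starting at 100 μM final, for 5 days at 37 °C, 5% CO2. CCK-8 was then added for 3-4 h, and CC50 was calculated from optical density.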

Row | Structure (SMILES) | EC50 [1] [µM] | CC50 at 5 days [2] [µM]
1 | CCOc1cc(-c2nc(C(=O)CNC(=O)c3ccc(OC)c(OC)c3)ccc2OC)cc2ccccc12 [Compound 1509] | 1 to 50 | > 100
2 | COc1ccc(C(=O)NCC(=O)c2ccc(OC)c(-c3cnoc3)n2)cc1OC [Compound 1510] | 1 to 50 | 10 to 100
3 | COc1ccc(C(=O)NCC(=O)c2ccc(OC)c(-c3c(C)ccnc3Cl)n2)cc1OC [Compound 1511] | 1 to 50 | 10 to 100
4 | COc1ccc(C(=O)NCC(=O)c2ccc(OC)c(-c3cccc4ccccc34)n2)cc1OC [Compound 1513] | 1 to 50 | 10 to 100
5 | COc1ccc(C(=O)NCC(=O)c2ccc(OC)c(-c3cc(C(=O)NC4CCCCC4)ccc3F)n2)cc1OC [Compound 1514] | 1 to 50 | > 100
6 | COc1ccc(C(=O)NCC(=O)c2ccc(OC)c(-c3ccc(F)cc3)n2)cc1OC [Compound 1515] | < 1 | > 100
7 | COc1ccc(C(=O)NCC(=O)c2ccc(OC)c(-c3ccccc3C#N)n2)cc1OC [Compound 1516] | 1 to 50 | 10 to 100
8 | COc1ccc(C(=O)NCC(=O)c2ccc(OC)c(-c3ccc4ccccc4c3)n2)cc1OC [Compound 1517] | 1 to 50 | > 100
9 | COc1ccc(C(=O)NCC(=O)c2ccc(OC)c(-c3ccc(C(=O)N4CCCCC4)cc3)n2)cc1OC [Compound 1518] | 1 to 50 | 10 to 100
10 | COc1ccc(C(=O)NCC(=O)c2ccc(OC)c(-c3cccc4ncccc34)n2)cc1OC [Compound 1519] | 1 to 50 | 10 to 100
11 | COc1ccc(C(=O)NCC(=O)c2ccc(OC)c(-c3cncnc3)n2)cc1OC [Compound 1520] | 1 to 50 | > 100
12 | COc1ccc(C(=O)NCC(=O)c2ccc(OC)c(-c3ccc4[nH]c(C)nc4c3)n2)cc1OC [Compound 1521] | 1 to 50 | 10 to 100
13 | COc1ccc(C(=O)NCC(=O)c2ccc(OC)c(-c3cccc4c(F)cccc34)n2)cc1OC [Compound 1522] | 1 to 50 | 10 to 100
14 | COc1ccc(C(=O)NCC(=O)c2ccc(OC)c(-c3ccc(N4CCCCC4)cc3)n2)cc1OC [Compound 1524] | 1 to 50 | > 100
15 | COc1ccc(C(=O)NCC(=O)c2ccc(OC)c(-c3ccc(Cl)cc3)n2)cc1OC [Compound 1525] | < 1 | > 100
16 | COc1ccc(C(=O)NCC(=O)c2ccc(OC)c(-c3cccc(F)c3F)n2)cc1OC [Compound 1526] | 1 to 50 | > 100
17 | COc1ccc(C(=O)NCC(=O)c2ccc(OC)c(-c3cccc(F)c3)n2)cc1OC [Compound 1527] | 1 to 50 | > 100
18 | COc1ccc(C(=O)NCC(=O)c2ccc(OC)c(-c3ccccc3F)n2)cc1OC [Compound 1528] | 1 to 50 | > 100
19 | COc1ccc(C(=O)NCC(=O)c2ccc(OC)c(-c3ccc(F)c(Cl)c3)n2)cc1OC [Compound 1529] | < 1 | > 100
20 | COc1ccc(C(=O)NCC(=O)c2ccc(OC)c(-c3ccc(C)cc3)n2)cc1OC [Compound 1530] | 1 to 50 | > 100
21 | COc1ccc(C(=O)NCC(=O)c2ccc(OC)c(-c3ccc(C(F)(F)F)cc3)n2)cc1OC [Compound 1531] | < 1 | > 100
22 | COc1ccc(C(=O)NCC(=O)c2ccc(OC)c(-c3ccc(OC(F)(F)F)cc3)n2)cc1OC [Compound 1532] | 1 to 50 | 10 to 100
23 | COc1ccc(C(=O)NCC(=O)c2ccc(OC)c(-c3cn[nH]c3)n2)cc1OC [Compound 1533] | 1 to 50 | > 100
24 | COc1ccc(C(=O)NCC(=O)c2ccc(OC)c(-c3ccc4[nH]cnc4c3)n2)cc1OC [Compound 1534] | 1 to 50 | > 100
25 | COc1ccc(C(=O)NCC(=O)c2ccc(OC)c(-c3ccnc(F)c3)n2)cc1OC [Compound 1535] | 1 to 50 | > 100

Row | Structure (SMILES) | EC50 [1] [µM] | CC50 at 5 days [2] [µM]
26 | COc1ccc(C(=O)NCC(=O)c2ccc(OC)c(-c3ccnc(Cl)c3)n2)cc1OC [Compound 1536] | 1 to 50 | > 100
27 | COc1ccc(C(=O)NCC(=O)c2ccc(OC)c(-c3csc(C(=O)O)c3)n2)cc1OC [Compound 1537] | 1 to 50 | > 100
28 | COc1ccc(C(=O)NCC(=O)c2ccc(OC)c(-c3ccc4cn(C)nc4c3)n2)cc1OC [Compound 1538] | 1 to 50 | > 100
29 | COc1ccc(C(=O)NCC(=O)c2ccc(OC)c(-c3ccc4scnc4c3)n2)cc1OC [Compound 1539] | 1 to 50 | > 100
30 | COc1ccc(C(=O)NCC(=O)c2ccc(OC)c(-c3cccnc3C)n2)cc1OC [Compound 1540] | 1 to 50 | > 100
31 | COc1ccc(C(=O)NCC(=O)c2ccc(OC)c(-c3c[nH]nc3C)n2)cc1OC [Compound 1541] | 1 to 50 | > 100
32 | COc1cc(C(=O)NCC(=O)c2ccc(OC)c(-c3ccc(F)cc3F)n2)ccc1OCCO [Compound 1601] | < 1 | > 100
33 | COc1cc(C(=O)NCC(=O)c2ccc(OC)c(-c3ccc(OC(F)(F)F)cc3)n2)ccc1OCCO [Compound 1602] | < 1 | > 100
34 | COc1cc(C(=O)NCC(=O)c2ccc(OC)c(-c3ccc(S(C)(=O)=O)cc3)n2)ccc1OCCO [Compound 1604] | 1 to 50 | > 100
35 | COc1cc(C(=O)NCC(=O)c2ccc(OC)c(-c3ccc(C(F)(F)F)cc3)n2)ccc1OCCO [Compound 1605] | < 1 | 10 to 100
36 | COc1cc(C(=O)NCC(=O)c2ccc(OC)c(-c3ccc(C)cc3)n2)ccc1OCCO [Compound 1606] | < 1 | > 100
37 | COc1cc(C(=O)NCC(=O)c2ccc(OC)c(-c3ccc(Cl)cc3)n2)ccc1OCCO [Compound 1607] | < 1 | 10 to 100
38 | COc1cc(C(=O)NCC(=O)c2ccc(OC)c(-c3ccc(F)cc3)n2)ccc1OCCO [Compound 1608] | < 1 | 10 to 100
39 | COc1cc(C(=O)NCC(=O)c2ccc(OC)c(-c3csc4ccc(F)cc34)n2)ccc1OCCO [Compound 1609] | < 1 | > 100
40 | COc1cc(C(=O)NCC(=O)c2ccc(OC)c(-c3ccnc(F)c3)n2)ccc1OCCO [Compound 1610] | 1 to 50 | > 100
41 | COc1cc(C(=O)NCC(=O)c2ccc(OC)c(-c3ccnc(Cl)c3)n2)ccc1OCCO [Compound 1611] | 1 to 50 | > 100
42 | COc1cc(C(=O)NCC(=O)c2ccc(OC)c(-c3ccc(Cl)c(F)c3)n2)ccc1OCCO [Compound 1612] | < 1 | > 100
43 | COc1cc(C(=O)NCC(=O)c2ccc(OC)c(-c3ccccc3)n2)ccc1OCCO [Compound 1613] | < 1 | > 100
44 | COc1cc(C(=O)NCC(=O)c2ccc(OC)c(-c3ccc(F)c(C(F)(F)F)c3)n2)ccc1OCCO [Compound 1614] | < 1 | > 100
45 | COc1cc(C(=O)NCC(=O)c2ccc(OC)c(-c3ccc(F)c(C#N)c3)n2)ccc1OCCO [Compound 1615] | 1 to 50 | > 100
46 | COc1cc(C(=O)NCC(=O)c2ccc(OC)c(-c3ccc(Cl)c(Cl)c3)n2)ccc1OCCO [Compound 1616] | < 1 | > 100
47 | COc1cc(C(=O)NCC(=O)c2ccc(OC)c(-c3ccc(F)c(F)c3)n2)ccc1OCCO [Compound 1618] | < 1 | > 100
48 | COc1cc(C(=O)NCC(=O)c2ccc(OC)c(-c3ccncc3)n2)ccc1OCCO [Compound 1619] | 1 to 50 | > 100
49 | COc1cc(C(=O)NCC(=O)c2ccc(OC)c(-c3csc4ccc(C#N)cc34)n2)ccc1OCCO [Compound 1620] | 1 to 50 | 10 to 100
50 | COc1cc(C(=O)NCC(=O)c2ccc(OC)c(-c3csc4ccncc34)n2)ccc1OCCO [Compound 1621] | 1 to 50 | > 100
